Measured values: patent US7470686B2, “Method of inhibiting the expression and/or the activity of JNK” (Laboratoires Serono SA, priority 1999, dated 2008)
Where a name gives a salt, the structure may show the parent alone.

Columns and labels:
[1] = target: recombinant, pre-activated GST-JNK3 (Homo sapiens, UniProt P53779); experiment: JNK3 enzyme assay (SPA, GST-c-Jun phosphorylation); type: biochemical; details: 2 μM ATP, 120 min at R.T
Description: (§1) JNK2 and 3 enzyme assay: […] The incubation is performed for 120 min. at R.T and stopped upon addition of 200 μl of a solution containing 250 μg of Streptavidine-coated SPA beads (Amersham, Inc.)*, 5 mM EDTA, 0.1% Triton X-100 and 50 μM ATP, in phosphate saline buffer. After incubation for 60 minutes at RT, beads are sedimented by centrifugation at 1500×g for 5 minutes, resuspended in 200 μl of PBS containing 5 mM EDTA, 0.1% Triton X-100 and 50 μM ATP and the radioactivity measured in a scintillation β counter, following sedimentation of the beads as described above. By substituting GST-c Jun for biotinylated GST-1ATF2 or myelin basic protein, this assay can be used to measure inhibition of preactivated p38 and ERK MAP Kinases, respectively.

[2] = target: recombinant, pre-activated GST-JNK2 (Homo sapiens, UniProt P45984); experiment: JNK2 enzyme assay (SPA, GST-c-Jun phosphorylation); type: biochemical; details: 2 μM ATP, 120 min at R.T
Sequence of recombinant, pre-activated GST-JNK2 (P45984 whole entry): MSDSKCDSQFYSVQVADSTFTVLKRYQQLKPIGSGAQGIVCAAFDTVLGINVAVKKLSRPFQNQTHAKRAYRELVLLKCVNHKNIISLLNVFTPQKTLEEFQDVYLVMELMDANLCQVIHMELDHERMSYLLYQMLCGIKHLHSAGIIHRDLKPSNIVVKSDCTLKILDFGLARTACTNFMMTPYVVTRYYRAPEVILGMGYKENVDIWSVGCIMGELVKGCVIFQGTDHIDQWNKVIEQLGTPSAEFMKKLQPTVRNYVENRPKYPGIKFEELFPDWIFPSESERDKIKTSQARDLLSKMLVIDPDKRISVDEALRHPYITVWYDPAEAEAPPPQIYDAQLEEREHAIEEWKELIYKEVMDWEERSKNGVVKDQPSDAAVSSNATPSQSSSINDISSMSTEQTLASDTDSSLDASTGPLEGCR
Description: as §1

ERK2 = ERK2 (Homo sapiens, UniProt P28482); experiment: ERK2 enzyme assay (SPA, myelin basic protein substrate); type: biochemical
Sequence of ERK2 (P28482 whole entry, species assumed): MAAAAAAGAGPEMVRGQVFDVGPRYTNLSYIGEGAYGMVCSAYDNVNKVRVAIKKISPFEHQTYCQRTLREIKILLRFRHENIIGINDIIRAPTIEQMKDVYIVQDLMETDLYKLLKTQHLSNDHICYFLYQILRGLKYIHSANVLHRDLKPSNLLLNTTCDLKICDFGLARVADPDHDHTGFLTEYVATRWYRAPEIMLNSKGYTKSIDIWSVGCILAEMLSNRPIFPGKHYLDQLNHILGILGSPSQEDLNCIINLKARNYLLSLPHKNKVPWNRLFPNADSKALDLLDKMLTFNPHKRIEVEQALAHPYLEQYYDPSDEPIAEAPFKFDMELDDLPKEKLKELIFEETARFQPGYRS
Description: as §1

preactivated p38 = preactivated p38 (Homo sapiens, UniProt Q16539); experiment: p38 enzyme assay (SPA, GST-ATF2 substrate); type: biochemical
Sequence of preactivated p38 (Q16539 whole entry): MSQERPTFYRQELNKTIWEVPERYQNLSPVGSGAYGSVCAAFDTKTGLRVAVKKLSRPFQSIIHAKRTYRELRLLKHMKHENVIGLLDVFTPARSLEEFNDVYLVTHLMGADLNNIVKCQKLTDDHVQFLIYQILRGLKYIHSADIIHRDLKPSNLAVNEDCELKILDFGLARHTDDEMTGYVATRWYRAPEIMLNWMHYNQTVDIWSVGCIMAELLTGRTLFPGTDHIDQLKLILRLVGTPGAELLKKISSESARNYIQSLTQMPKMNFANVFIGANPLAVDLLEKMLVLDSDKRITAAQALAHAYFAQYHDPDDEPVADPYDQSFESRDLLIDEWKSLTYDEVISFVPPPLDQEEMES
Description: The incubation is performed for 120 min. at R.T and stopped upon addition of 200 μl of a solution containing 250 μg of Streptavidine-coated SPA beads (Amersham, Inc.)*, 5 mM EDTA, 0.1% Triton X-100 and 50 μM ATP, in phosphate saline buffer. After incubation for 60 minutes at RT, beads are sedimented by centrifugation at 1500×g for 5 minutes, resuspended in 200 μl of PBS containing 5 mM EDTA, 0.1% Triton X-100 and 50 μM ATP and the radioactivity measured in a scintillation β counter, following sedimentation of the beads as described above. By substituting GST-c Jun for biotinylated GST-1ATF2 or myelin basic protein, this assay can be used to measure inhibition of preactivated p38 and ERK MAP Kinases, respectively.

[3] = system: JNK (Hlr c-Jun HeLa cells); experiment: C-Jun reporter assay; type: cell-based; details: Homo sapiens, MEKK1-transfected Hlr c-Jun HeLa cells, luciferase reporter
Description: Hlr c-Jun HeLa cells are cultured in DMEM High Glc supplemented with 10% FCS (Sigma), 2 mM Glutamine (Gibco), P/S, Hygromycin b 100 µg/mL and G418 250 μg/mL
The cells from flasks of near-confluent cultures are detached and disaggregated by treatment with trypsin as described above. The cells are resuspended in culture medium and counted. The cell suspension are diluted with medium to give about 3.5×10^6 cells/mL and […] of cell suspension are put onto 2 10 cm culture dishes containing 9 mL of culture medium. The plates are incubated at 37° C. in a humidified atmosphere of 5% CO2 in air
• Control 0.2 μg pTK Renilla, 5.8 μg pBluescript KS, 500 μl OPTIMEM (GIBCO), 18 μl Fugene 6 • Induced 0.1 μg pMEKK1, 0.2 μg pTK Renilla, 5.7 μg pBluescript KS, 500 μl OPTIMEM (GIBCO), 18 μl Fugene 6 30′ RT
The transfection mixture is added to the plated cells. The plates are incubated over night at 37° C. in a humidified atmosphere of 5% CO2 in air
A 96 wells plate containing 100 μl of culture medium per well is prepared
Compound: 2 μl of Hit compound stock dilution are added to the 100 μl (in triplicate). The transfected cells are trypsinised and re-suspend in 12 mL of culture medium. 100 μl of the dilution are added to each of the 96 wells plate. The plate is incubated over night at 37° C. in a humidified atmosphere of 5% CO2 in air
The medium is removed from the plate and the cells washed two times with 100 μl PBS Completely remove the rinse solution before applying PLB reagent. Dispense into each culture well […] of 1×PLB. Place the culture plates on a rocking platform or orbital shaker with gentle rocking/shaking to ensure complete and even coverage of the cell monolayer with 1×PLB. Rock the culture plates at room temperature for 15 minutes. Transfer 20 μl of the lysate into a white opaque 96 wells plate. Read in a luminometer. • Inject 50 μl of Luciferase Assay Reagent II wait 5″, read 10″ • Inject 50 μl of Stop & Glo® Reagent wait 5″, read 10″ Check RLU Luciferase/RLU Renilla*1000

Sequence of recombinant, pre-activated GST-JNK3 (P53779 whole entry): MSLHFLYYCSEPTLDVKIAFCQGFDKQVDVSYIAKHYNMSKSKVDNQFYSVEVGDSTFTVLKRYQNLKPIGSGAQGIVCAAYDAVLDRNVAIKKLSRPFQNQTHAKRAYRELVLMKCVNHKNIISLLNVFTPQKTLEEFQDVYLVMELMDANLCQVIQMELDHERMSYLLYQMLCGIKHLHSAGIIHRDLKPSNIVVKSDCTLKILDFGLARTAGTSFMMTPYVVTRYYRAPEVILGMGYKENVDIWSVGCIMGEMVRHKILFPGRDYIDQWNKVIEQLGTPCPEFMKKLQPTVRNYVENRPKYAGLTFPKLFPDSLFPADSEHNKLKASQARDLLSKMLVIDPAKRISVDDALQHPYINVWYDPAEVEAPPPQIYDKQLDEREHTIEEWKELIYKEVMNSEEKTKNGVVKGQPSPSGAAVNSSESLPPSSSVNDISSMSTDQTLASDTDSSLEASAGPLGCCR

Compound	melting point	IC50 [1] [nM]	IC50 [2] [nM]	IC50 (ERK2) [nM]	also measured
N#CC(c1ccnc(NCCc2ccccn2)n1)c1nc2ccccc2s1 (stereo not drawn) (as salt: TFA) [Compound 28, 1,3-benzothiazol-2-yl(2-{[2-(2-pyridinyl)ethyl]amino}-4-pyrimidinyl)acetonitrile]	247 °C (dec.)	–	–	–	–
N#CC(c1ccnc(NCc2ccccn2)n1)c1nc2ccccc2s1 (stereo not drawn) (as salt: TFA) [Compound 29, 1,3-benzothiazol-2-yl{2-[(2-pyridinylmethyl)amino]-4-pyrimidinyl}acetonitrile]	250 °C (dec.)	–	–	–	–
CN(C)CCCNc1nccc(C(C#N)c2nc3ccccc3s2)n1 (stereo not drawn) (as salt: TFA) [Compound 47, 1,3-benzothiazol-2-yl(2-{[3-(dimethylamino)propyl]amino}pyrimidin-4-yl)acetonitrile]	204 to 205 °C	–	–	–	–
N#CC(c1ccnc(NCCN2CCCCC2)n1)c1nc2ccccc2s1 (stereo not drawn) (as salt: TFA) [Compound 48, 1,3-benzothiazol-2-yl {2-[(2-piperidin-1-ylethyl)amino]pyrimidin-4-yl}acetonitrile]	228 to 230 °C	–	–	–	–
Cn1cncc1CCNc1nccc(C(C#N)c2nc3ccccc3s2)n1 (stereo not drawn) (as salt: TFA) [Compound 49, 1,3-benzothiazol-2-yl(2-{[2-(1-methyl-1H-imidazol-5-yl)ethyl]amino}pyrimidin-4-yl)acetonitrile]	219 to 220 °C	–	–	–	–
N#CC(c1ccnc(Cl)n1)c1nc2ccccc2s1 (stereo not drawn) [Compound 1, 1,3-benzothiazol-2-yl(2-chloro-4-pyrimidinyl)-acetonitrile]	–	290	500	> 30000	–
CSc1nccc(C(C#N)c2nc3ccccc3s2)n1 (stereo not drawn) [Compound 4, 1,3-benzothiazol-2-yl[2-(methylsulfanyl)-4-pyrimidinyl]acetonitrile]	–	350	970	> 30000	–
N#CC(c1ccnc(NCCc2c[nH]cn2)n1)c1nc2ccccc2s1 (stereo not drawn) [Compound 10, 1,3-benzothiazol-2-yl(2-{[2-(1H-imidazol-4-yl)ethyl]amino}-4-pyrimidinyl)acetonitrile]	–	70	210	> 30000	IC50 (preactivated p38): > 30000 nM
CNc1nccc(C(C#N)c2nc3ccccc3s2)n1 (stereo not drawn) [Compound 15, 1,3-benzothiazol-2-yl[2-(methylamino)-4-pyrimidinyl]acetonitrile]	–	950	2300	> 30000	–
N#CC(c1ccnc(NCCO)n1)c1nc2ccccc2s1 (stereo not drawn) [Compound 23, 1,3-benzothiazol-2-yl {2-[(2-hydroxyethyl)amino]-4-pyrimidinyl}acetonitrile]	–	510	1800	> 30000	IC50 (preactivated p38): > 30000 nM
N#CC(c1ccnc(N2CCCC2)n1)c1nc2ccccc2s1 (stereo not drawn) [Compound 26, 1,3-benzothiazol-2-yl[2-(1-pyrrolidinyl)-4-pyrimidinyl]acetonitrile]	270 to 272 °C	–	–	–	–
N#CC(c1ccnc(NCCc2ccccc2)n1)c1nc2ccccc2s1 (stereo not drawn) [Compound 27, 1,3-benzothiazol-2-yl {2-[(2-phenylethyl)amino]-4-pyrimidinyl}acetonitrile]	256 °C (dec.)	–	–	–	–
N#CC(c1ccnc(NCCc2cccnc2)n1)c1nc2ccccc2s1 (stereo not drawn) [Compound 33, 1,3-benzothiazol-2-yl(2-{[2-(3-pyridinyl)ethyl]amino}-4-pyrimidinyl)acetonitrile]	–	–	–	–	inhibition at 10 µM [3]: > 50%
N#CC(c1ccnc(NCCc2ccc(O)cc2)n1)c1nc2ccccc2s1 (stereo not drawn) [Compound 43, 1,3-benzothiazol-2-yl(2-{[2-(4-hydroxyphenyl)ethyl]amino}pyrimidin-4-yl)acetonitrile]	258 to 261 °C	–	–	–	–
N#CC(c1ccnc(OCc2ccccc2)n1)c1nc2ccccc2s1 (stereo not drawn) [Compound 80, 1,3-benzothiazol-2-yl[2-(benzyloxy)pyrimidin-4-yl]acetonitrile]	–	60	250	> 30000	IC50 (preactivated p38): > 30000 nM
N#CC(c1ccnc(OCc2ccc(CN3CCOCC3)cc2)n1)c1nc2ccccc2s1 (stereo not drawn) [Compound 93, 1,3-benzothiazol-2-yl(2-{[4-(morpholin-4-ylmethyl)benzyl]oxy}pyrimidin-4-yl)acetonitrile]	–	–	–	–	inhibition at 10 µM [3]: > 50%
N#CC(c1ccnc(OCc2ccc(CN3CCCCC3)cc2)n1)c1nc2ccccc2s1 (stereo not drawn) [Compound 95, 1,3-benzothiazol-2-yl(2-{[4-(piperidin-1-ylmethyl)benzyl]oxy}pyrimidin-4-yl)acetonitrile]	–	–	–	–	inhibition at 10 µM [3]: > 50%
COc1ccc(Oc2nccc(C(C#N)c3nc4ccccc4s3)n2)cc1 (stereo not drawn) [Compound 96, 1,3-benzothiazol-2-yl[2-(4-methoxyphenoxy)pyrimidin-4-yl]acetonitrile]	–	30	300	> 30000	IC50 (preactivated p38): > 30000 nM
COc1nccc(C(C#N)c2nc3ccccc3s2)n1 (stereo not drawn) [Compound 102, 1,3-benzothiazol-2-yl(2-methoxy-4-pyrimidinyl)-acetonitrile]	–	105	450	> 30000	–
